Source: patent US20240142458A1, “FLUORESCENT PROBES FOR QUANTIFICATION OF FREE COPPER” (TECHNISCHE UNIVERSITÄT BERLIN, priority 2020, published 2024)

Key:
[1] = Metal-dependent changes of absorbance and fluorescence properties, cell-free; details: for fluorescence change by iron treatment in vitro: cell-free, FIG. 1
Experimental: (§1) FIG. 1: Metal-dependent changes of p-H8TPPA absorbance and fluorescence properties. • 10 μM p-H8TPPA dilutions were treated with various metal solutions (final concentration 40 μM) before recording (A) absorbance, (B) fluorescence excitation (⋅Em.650 nm) and (C) fluorescence emission (⋅⋅Exc.415 nm) spectra. Data are representative for three independent experiments.
as §1, with “3:” for “1:”, “m-H8TPPA” for “p-H8TPPA”
Aiming to use arylphosphonate-tethered porphyrins as real-time cellular metal fluorescence sensors, we first characterized their metal-responsiveness under cell-free conditions. p-H8TPPA (see FIG. 1) and m-H8TPPA (see FIG. 3), were pretreated with various bivalent metal ions at a pH close to the cellular milieu (pH 7.4) before recording absorption and fluorescence spectra. […] Following Co^2+ treatment absorption spectra were less intense, plateau-shaped with a bathochromic broadening up to 434 nm. Hg^2+-treatment red-shifted the Soret band by approximately 30 nm. […] Despite of their restricted fluorescence intensity, the fluorescence emission patterns of all the aforementioned metal-treated arylphosphonate-tethered porphyrins seemed to be […] almost indistinguishable from the buffer-controls (see FIG. 1C, FIGS. 2 and 4). Zn^2+ treatment led to a declined and much more broadened Soret band in the range of 380-430 nm (see FIG. 1A). […] Thus, we assume a fluorescence quenching effect of Zn^2+ that requires further investigation.
(§2) Absorption spectra were recorded with a Tecan Infinite M200 Reader (Tecan Austria GmbH, Grödig/Salzburg, Switzerland) from 350 to 500 nm. The same device was used in fluorescence mode to measure fluorescence excitation ([…]; ⋅⋅Em. 650 nm) and fluorescence emission (550-850 nm; ⋅⋅Exc. 415 nm) spectra. 3D scanning was performed on a Spark® multimode microplate reader (Tecan Austria GmbH, Grodig/Salzburg, Switzerland) from 350 to 450 nm (Exc.) and 555 to 850 nm (Em.) with a 5 nm step size, excitation and emission bandwidths of 5 nm, and a detector gain of 100. A typical reaction mix was made by combining equal volumes of 20 μM phosphonate porphyrins diluted in assay-buffer (50 mM HEPES in bidistilled water adjusted to […] with sodium hydroxide solution; depleted of multivalent cations with Chelex® 100 Resin pretreatment^51) and a double-concentrated metal cation solution. Following 30 min incubations at 37° C. absorption or fluorescence measurements were done. For redox conversion tests the CuSO4 solutions were pretreated with 500 μM of L-ascorbic acid before admixing into the phosphonate porphyrin dilutions. To evaluate the effect of metal chelators, the metal cation-treated incubation mixtures were posttreated with 50 equivalents of EDTA or EGTA for 15 min before fluorescence emission readout.

[2] = Fluorescence titration with metal cations; details: for half maximal effective concentration for fluorescence silencing, copper versus other metal cations: 10 μM probe, Exc/Em 416 nm/650 nm; for fluorescence upon treatment with Cu^2+: 40 μM Cu^2+ (CuSO4), probe 10 μM
Experimental: FIG. 6: Fluorescence titration of p-H8THPPA and m-H8TPPA with metal cations. • 10 μM p-H8TPPA or m-H8TPPA solutions were treated with increasing quantities of metal cations followed by detection of fluorescence emission (⋅Exc/Em.416 nm/650 nm). Data are means±S.E.M. of at least n=3 independent experiments. Sigmoidal dose—response curves were fitted by non-linear regression and the resulting EC50 values are indicated.
FIG. 7: Fluorescence titration of p-H8THPPA and m-H8TPPA upon addition of metal cations • 10 μM p-H8TPPA or […] were treated with increasing quantities of metal cations followed by detection of fluorescence emission (⋅Exe/Em.416 nm/650 nm). Data are means+S.E.M. of at least n=3 independent experiments. Sigmoidal dose—response curves were fitted by non-linear regression and the resulting EC50 values are indicated.
as §2

[3] = Reversibility of metal complexation upon addition of EDTA or EGTA; details: 50 equivalents
Experimental: FIG. 9: Reversibility of p-H8THPPA and m-H8TPPA metal complexation. • Fluorescence of metal cation pretreated p-H8THPPA or m-H8TPPA solutions upon addition of 50 equivalents of EDTA or EGTA (⋅⋅Exc/Em.416 nm/650 nm). Data are means±S.E.M. of n=3 independent experiments. Statistically significant differences from buffer incubation (***p<0.001; two-way ANOVA/ Tukey post hoc test) or from metal cation treatment (##p<0.01; ###p<0.001; two-way ANOVA/Tukey post hoc test) are indicated.
as §2

[4] = Effect of Cu-redox conversion on fluorescence; details: 10 μM CuSO4 +/- 500 μM L-ascorbic acid
Experimental: FIG. 10: Effect of Cu-redox conversion on p-H8THPPA and m-H8TPPA fluorescence properties • 10 μM CuSO4 solutions pretreated +/−500 μM of l-ascorbic acid (15 min) were mixed with p-H8-TPPA or m-H8TPPA followed by detection of fluorescence emission (⋅⋅Exc/Em.416 nm/650 nm). Data are means+S.E.M. of n=3 independent experiments. Statistically significant differences from control ***p<0.001; two-way ANOVA/Tukey post hoc test) or from Cu^2+ alone (#p<0.05; two-way ANOVA/Tukey post hoc test) are indicated.
Absorption spectra were recorded with a Tecan Infinite M200 Reader (Tecan Austria GmbH, Grödig/Salzburg, Switzerland) from 350 to 500 nm. The same device was used in fluorescence mode to measure fluorescence excitation ([…]; ⋅⋅Em. 650 nm) and fluorescence emission (550-850 nm; ⋅⋅Exc. 415 nm) spectra. 3D scanning was performed on a Spark® multimode microplate reader (Tecan Austria GmbH, Grodig/Salzburg, Switzerland) from 350 to 450 nm (Exc.) and 555 to 850 nm (Em.) with a 5 nm step size, excitation and emission bandwidths of 5 nm, and a detector gain of 100. […] Following 30 min incubations at 37° C. absorption or fluorescence measurements were done. […] To evaluate the effect of metal chelators, the metal cation-treated incubation mixtures were posttreated with 50 equivalents of EDTA or EGTA for 15 min before fluorescence emission readout.

Caco-2 cells [5] = assay: Fluorescence labeling of Caco-2 enterocytes (emission spectra, confocal imaging); assay type: cell-based, human; details: for passage of the cellular membrane / cellular uptake: Caco-2 cells, fluorescence spectra and confocal imaging
Experimental: FIG. 2: Caco-2 fluorescence labeling with Phenylphosphonate-substituted porphyrines. • Caco-2 cells were incubated with increasing concentrations of p-H8TPPA or m-H8TPPA followed by fluorescence measurement (⋅Exc/Em.416 nm/650 nm). Data are means±S.E.M. of n=3 independent experiments.
FIG. 5: Fluorescence labeling of Caco-2 enterocytes by phenylphosphonate-substituted porphyrines. • Fluorescence emission spectra of Caco-2 cells exposed to p-H8TPPA, m-H8TPPA (A) or the isopropyl-modified phosphonate p-H8TPPA-iPr8 (C) in comparison with each of the phenylphosphonate porphyrins as 10 μM dilution in assay buffer (⋅Exc416 nm). (B) Confocal images of Caco-2 upon loading with p-H8TPPA or m-H8TPPA. (D) Confocal images of p-H8TPPA-iPr8 in the presence or absence of Caco-2 cells. Scale bar=10 μm. Data are representative for three independent experiments.
(§3) The human intestinal cell line Caco-2 (European Collection of Cell Cultures, Porton Down, UK) were routinely cultured at 37° C., 5% CO2 and humidified atmosphere in Dulbecco's Modified Eagles Medium (DMEM), containing 10% fetal calf serum (FCS) 100 U/mL penicillin and 100 μg/ml streptomycin. For cellular phosphonate porphyrins experiments, Caco-2 cells were transferred into 96 wells (initially seeding 5000 cells per well) and cultured for 14 days for differentiation into an enterocyte-like monolayer^53,54. For phosphonate labeling, differentiated cells were treated with either m-H8TPPA, p-H8TPPA or p-H8TPPA-iPr8 in a HEPES-based incubation buffer (10 mM HEPES, pH 7.35, 120 mM NaCl, 5.4 mM KCl, 5 mM glucose, 1.3 mM CaCl2, 1 mM MgCl2, 1 mM NaH2PO4, 0.3% bovine serum albumin) for […] Excess fluorescent dye was removed by multiple washing steps before fluorescence emission scanning using 416 nm excitation (Tecan Infinite M200 reader; Tecan, Grödig/Salzburg, […]). To analyze metal responsiveness of the intracellular phosphonate porphyrins, cells were post-treated with 50 μM of different metal solutions at 37° C. in an albumin-free incubation buffer in a time-course experiment.
Fluorescence images of phosphonate porphyrin-labeled Caco-2 enterocytes were acquired on a Leica TCS SP8 laser scanning confocal microscope equipped with LAS X 3.5.5.19976 software platform, using a HC PL APO CS2 63×/1.20 water objective. The filters settings were[…]Exc488 nm/[…]Em580 nm; pinhole 111.5 μm, pinhole size 1 AU.

Caco-2 cells [6] = assay: Live-cell sensing of metal uptake into Caco-2 enterocytes; assay type: cell-based, human; details: for intracellular probe fluorescence upon extracellular FeSO4: 50 μM FeSO4, Caco-2 cells; for intracellular probe fluorescence upon Cu-exposure / intracellular probe response to incoming Cd^2+, Cu^2+, Hg^2+, Mn^2+, Pb^2+ and Zn^2+: 50 μM, Caco-2 cells
Experimental: FIG. 11: Live-cell sensing of metal uptake into Caco-2 enterocytes with p-H8THPPA and m-H8TPPA. • Caco-2 cells were loaded with p-H8THPPA or m-H8TPPA and the fluorescence recorded in 3 min intervals (⋅⋅Exc/Em.416 nm/650 nm). Fifteen minutes after the start of the experiment (arrow), metal cation solutions (final concentration 50 μM) or buffer (control) were added and the fluorescence measurement continued. Data are means±S.E.M. of n=3 independent experiments.
FIG. 12 Summary of cellular p-H8TPPA and m-H8TPPA metal responsiveness. • Data were taken from the last fluorescence readout shown in FIG. 11. Data are means+S.E.M. of n=3 independent experiments. Significant differences from buffer incubation ***p<0.001; **p<0.01; *p<0.05; one-way ANOVA/Dunnett's multiple comparison test.
as §3

[7] = Metal-dependent changes of absorbance and fluorescence properties, cell-free; details: for new absorbance band peak after Cd^2+ treatment: decline of 416 nm maximum; for Soret peak of visible absorption: buffer-control treatment, pH 7.4, 10 μM probe
[8] = Solubility in aqueous media with detergent pluronic; assay type: physicochemical; details: pluronic F-127
[9] = 10 μM probe, 40 μM metal, pH 7.4

| SMILES | fluorescence change on binding of free divalent Cu, Zn, Pb, Hg, Cd, Co and Mn ions [1] | fluorescence change on binding of free divalent Fe, Mg and Ca ions [1] | fluorescence change by iron treatment in vitro [1] | half maximal effective concentration for fluorescence silencing, copper versus other metal cations [2] | fluorescence upon treatment with Cu^2+ [2] | response of Zn^2+ and Hg^2+ quenching to metal chelator posttreatment [3] | response of copper-induced fluorescence decrease to metal chelator posttreatment [3] | fluorescence response to Cu^2+ and Cu^+ [4] | passage of the cellular membrane / cellular uptake (Caco-2 cells [5]) | intracellular probe fluorescence upon extracellular FeSO4 (Caco-2 cells [6]) | intracellular probe fluorescence upon Cu-exposure (Caco-2 cells [6]) | intracellular probe response to incoming Cd^2+, Cu^2+, Hg^2+, Mn^2+, Pb^2+ and Zn^2+ (Caco-2 cells [6]) | fluorescence change upon Ca^2+ or Mg^2+ treatment [7, 9] | fluorescence change upon Mn^2+ and (far more pronounced) Pb^2+ treatment [7, 9] | red-shift of the Soret band after Hg^2+ treatment [7, 9] | new absorbance band peak after Cd^2+ treatment [7, 9] [nm] | Soret peak of visible absorption [7] | other results |
| --- | --- | --- | --- | --- | --- | --- | --- | --- | --- | --- | --- | --- | --- | --- | --- | --- | --- | --- |
| O=P(O)(O)c1cccc(-c2c3nc(c(-c4cccc(P(=O)(O)O)c4)c4ccc([nH]4)c(-c4cccc(P(=O)(O)O)c4)c4nc(c(-c5cccc(P(=O)(O)O)c5)c5ccc2[nH]5)C=C4)C=C3)c1 [m-H8TPPA, 5,10,15,20-tetrakis [m-phenylphosphonic acid] porphyrin] | fluorescent decrease | fluorescent increase | slightly enhanced | considerably lower for copper | almost complete abrogation | quenching was reversed | almost non-responsive | Quenching | pass the cellular membrane | remained stable | strong and rapid decline | fluorescence silencing | higher fluorescence | dropped markedly | approximately 30 nm | 434 | around 416 nm |  |
| O=P(O)(O)c1ccc(-c2c3nc(c(-c4ccc(P(=O)(O)O)cc4)c4ccc([nH]4)c(-c4ccc(P(=O)(O)O)cc4)c4nc(c(-c5ccc(P(=O)(O)O)cc5)c5ccc2[nH]5)C=C4)C=C3)cc1 [p-H8TPPA, 5,10,15,20-Tetrakis [p-phenylphosphonic acid] porphyrin] | fluorescent decrease | fluorescent increase | slightly enhanced | considerably lower for copper | almost complete abrogation | quenching was reversed | almost non-responsive | Quenching | pass the cellular membrane | remained stable | strong and rapid decline | fluorescence silencing | higher fluorescence | dropped markedly | approximately 30 nm | 434 | around 416 nm | fluorescence emission after Zn^2+ treatment relative to excitation properties ([7]; 10 μM probe, 40 μM metal, pH 7.4, FIG. 1): much lower than what would have been expected |
| CC(C)OP(=O)(OC(C)C)c1ccc(-c2c3nc(c(-c4ccc(P(=O)(OC(C)C)OC(C)C)cc4)c4ccc([nH]4)c(-c4ccc(P(=O)(OC(C)C)OC(C)C)cc4)c4nc(c(-c5ccc(P(=O)(OC(C)C)OC(C)C)cc5)c5ccc2[nH]5)C=C4)C=C3)cc1 [p-H8TPPA-iPr8, 5,10,15,20-tetrakis[p-(diisopropoxyphosphoryl)phenyl] porphyrin] |  |  |  |  |  |  |  |  | inaccessible for cellular uptake |  |  |  |  |  |  |  |  | fluorescence change upon metal binding ([1]; isopropyl diester, phosphonate blocked for metal binding): no fluorescence change; microcrystal size in confocal microscopy pictures (Caco-2 cells [5]; incubation buffer, with or without Caco-2 cells): ~20 μm; effect of detergent pluronic on solubility in aqueous media [8]: did not improve the solubility |
